Values after ≈ are worked out from the molar mass of the structure shown. Positions of bridges follow the written chain, without caps; N, C: chain ends. Non-standard residues stand in square brackets, D forms with d. Residues, ends and D or L forms follow the SMILES beside them. Groups on a side chain read outwards from the residue. *: point of attachment. Palmitoyl(16-(5-tetrazolyl)) = O=C(CCCCCCCCCCCCCCCc1nnn[nH]1)*; Lys(CH2CO2H)2 = N[C@@H](CCCCN(CC(=O)O)CC(=O)O)C(=O)O; C17 diacid = O=C(O)CCCCCCCCCCCCCCCC(=O)*; Hyp = O=C(O)[C@@H]1C[C@@H](O)CN1; Dab = NCC[C@H](N)C(=O)O; AEEA = NCCOCCOCC(=O)O
Columns and labels:
MC1 receptor = MC1 receptor (Homo sapiens, UniProt Q01726); test: biochemical
Chain of MC1 receptor (Q01726 whole entry): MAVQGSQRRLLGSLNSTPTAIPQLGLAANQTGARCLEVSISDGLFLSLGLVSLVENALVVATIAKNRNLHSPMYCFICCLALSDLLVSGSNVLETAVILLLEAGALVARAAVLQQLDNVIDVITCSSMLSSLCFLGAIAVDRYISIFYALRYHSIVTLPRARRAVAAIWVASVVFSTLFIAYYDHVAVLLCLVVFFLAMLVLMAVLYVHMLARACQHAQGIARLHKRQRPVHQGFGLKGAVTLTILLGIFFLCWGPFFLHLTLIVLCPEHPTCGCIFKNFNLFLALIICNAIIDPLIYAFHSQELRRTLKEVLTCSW
Procedure, shortened: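 Radioligand competition on membranes (25 μg/ml) of BHK cells stably expressing MC1, with 22 pM final 125I-NDP-α-MSH in 25 mM HEPES pH 7.4, Ca/Mg, EDTA, 0.1% HSA (or ovalbumin), 0.005% Tween 20. Incubated 90 min at 30 °C, filtered over PEI-treated GF/B; curves fitted by non-linear regression.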

physchem = test: physchem
Protocol: From a stock solution in vehicle, either H2O or 10 mM phosphate, containing 1 mg (as weighed) compound per ml, 8-11 aliquots are withdrawn and pH-adjusted individually with HCl/NaOH, to cover the whole pH range.

Row | Compound | Ki (MC1 receptor) [µM] | solubility (physchem; pH 6.7, Solubility Conc.) [µM] | solubility (physchem; pH 7, Solubility Conc.) [µM] | solubility (physchem; pH 7.2, Solubility Conc.) [µM] | solubility (physchem; pH 7.5, Solubility Conc.) [µM] | solubility (physchem; pH 7.6, Solubility Conc.) [µM] | solubility (physchem; pH 7.8, Solubility Conc.) [µM] | solubility (physchem; pH 7.9, Solubility Conc.) [µM] | solubility (physchem; pH 8.1, Solubility Conc.) [µM] | solubility (physchem; pH 6.6, Solubility Conc.) [µM] | solubility (physchem; pH 6.9, Solubility Conc.) [µM] | solubility (physchem; pH 7.3, Solubility Conc.) [µM] | solubility (physchem; pH 7.4, Solubility Conc.) [µM] | solubility (physchem; pH 5, Solubility Conc.) [µM] | solubility (physchem; pH 6.1, Solubility Conc.) [µM] | solubility (physchem; pH 6.8, Solubility Conc.) [µM] | solubility (physchem; pH 7.1, Solubility Conc.) [µM] | solubility (physchem; pH 7.7, Solubility Conc.) [µM] | solubility (physchem; pH 8, Solubility Conc.) [µM] | solubility (physchem; pH 6.4, Solubility Conc.) [µM]
1 | CC(=O)N[C@H]1CCC(=O)NCC[C@@H](C(=O)N2C[C@H](O)C[C@H]2C(=O)N2C[C@H](O)C[C@H]2C(=O)N[C@@H](CCCNC(=N)N)C(=O)N[C@@H](CC(=O)O)C(=O)N[C@@H](CCCCN(CC(=O)O)CC(=O)O)C(=O)N[C@@H](CCCCNC(=O)COCCOCCNC(=O)CCCCCCCCCCCCCCCc2nnn[nH]2)C(N)=O)NC(=O)[C@H](Cc2c[nH]c3ccccc23)NC(=O)[C@H](CCCNC(=N)N)NC(=O)[C@@H](Cc2ccccc2)NC(=O)[C@H](Cc2c[nH]cn2)NC1=O [Example 32, Ac-c[Glu-His-D-Phe-Arg-Trp-Dab]-Hyp-Hyp-Arg-Asp-Lys(biscarboxymethyl)-Lys[(2-{2-[16-(tetrazol-5-yl)hexadecanoylamino]ethoxy}ethoxy)acetyl]-NH2] (Ac-EH[dF]RW[Dab][Hyp][Hyp]RD[Lys(CH2CO2H)2]K([AEEA-Palmitoyl(16-(5-tetrazolyl))])-NH2; lactam 1-6) | > 10 | 40 (≈ 88.7 µg/mL) | 60 (≈ 133 µg/mL) | 89 (≈ 197 µg/mL) | 258 (≈ 572 µg/mL) | 324 (≈ 719 µg/mL) | 640 (≈ 1420 µg/mL) | 674 (≈ 1500 µg/mL) | 230 (≈ 510 µg/mL) |  |  |  |  |  |  |  |  |  |  | 
2 | CC(=O)N[C@H]1CCC(=O)NCCCC[C@@H](C(=O)N2CCC[C@H]2C(=O)N2CCC[C@H]2C(=O)N[C@@H](CCCNC(=N)N)C(=O)N[C@@H](CC(=O)O)C(=O)N[C@@H](CCCCN(CC(=O)O)CC(=O)O)C(=O)N[C@@H](CCCCNC(=O)COCCOCCNC(=O)CCCCCCCCCCCCCCCc2nnn[nH]2)C(N)=O)NC(=O)[C@H](Cc2c[nH]c3ccccc23)NC(=O)[C@H](CCCNC(=N)N)NC(=O)[C@@H](Cc2ccccc2)NC(=O)[C@H](Cc2c[nH]cn2)NC1=O [Example 27, Ac-c[Glu-His-D-Phe-Arg-Trp-Lys]-Pro-Pro-Arg-Asp-Lys(biscarboxymethyl)-Lys[(2-{2-[16-(tetrazol-5-yl)hexadecanoylamino]ethoxy}ethoxy)acetyl]-NH2] (Ac-EH[dF]RWKPPRD[Lys(CH2CO2H)2]K([AEEA-Palmitoyl(16-(5-tetrazolyl))])-NH2; lactam 1-6) | > 10 |  |  | 263 (≈ 582 µg/mL) | 474 (≈ 1050 µg/mL) | 521 (≈ 1150 µg/mL) | 481 (≈ 1070 µg/mL) |  | 435 (≈ 963 µg/mL) | 42 (≈ 93 µg/mL) | 65 (≈ 144 µg/mL) | 394 (≈ 873 µg/mL) | 459 (≈ 1020 µg/mL) |  |  |  |  |  |  | 
3 | CC(=O)N[C@H]1CCNC(=O)C[C@@H](C(=O)N2CCC[C@H]2C(=O)N2CCC[C@H]2C(=O)N[C@@H](CCCNC(=N)N)C(=O)N[C@@H](CCC(=O)O)C(=O)N[C@@H](CCCCN(CC(=O)O)CC(=O)O)C(=O)N[C@@H](CCCCNC(=O)COCCOCCNC(=O)CCCCCCCCCCCCCCCc2nnn[nH]2)C(N)=O)NC(=O)[C@H](Cc2c[nH]c3ccccc23)NC(=O)[C@H](CCCNC(=N)N)NC(=O)[C@@H](Cc2ccccc2)NC(=O)[C@H](Cc2c[nH]cn2)NC1=O [Example 15, Ac-c[Dab-His-D-Phe-Arg-Trp-Asp]-Pro-Pro-Arg-Glu-Lys(biscarboxymethyl)-Lys[(2-{2-[16-(tetrazol-5-yl)hexadecanoylamino]ethoxy}ethoxy)acetyl]-NH2] (Ac-[Dab]H[dF]RWDPPRE[Lys(CH2CO2H)2]K([AEEA-Palmitoyl(16-(5-tetrazolyl))])-NH2; lactam 1-6) | > 10 |  |  |  |  |  | 441 (≈ 964 µg/mL) |  |  |  |  | 395 (≈ 864 µg/mL) | 445 (≈ 973 µg/mL) | 49 (≈ 107 µg/mL) | 26 (≈ 56.9 µg/mL) | 60 (≈ 131 µg/mL) | 147 (≈ 321 µg/mL) | 461 (≈ 1010 µg/mL) | 417 (≈ 912 µg/mL) | 
4 | CC(=O)N[C@H]1CCCCNC(=O)C[C@@H](C(=O)N2CCC[C@H]2C(=O)N2CCC[C@H]2C(=O)N[C@@H](Cc2c[nH]cn2)C(=O)N[C@@H](CO)C(=O)N[C@@H](CCCCN(CC(=O)O)CC(=O)O)C(=O)N[C@@H](CO)C(=O)N[C@@H](CO)C(=O)N[C@@H](CCC(=O)O)C(=O)N[C@@H](CCCCNC(=O)COCCOCCNC(=O)CCCCCCCCCCCCCCCC(=O)O)C(N)=O)NC(=O)[C@H](Cc2c[nH]c3ccccc23)NC(=O)[C@H](CCCNC(=N)N)NC(=O)[C@@H](Cc2ccccc2)NC(=O)[C@H](Cc2c[nH]cn2)NC1=O [Example 45, Ac-c[Lys-His-D-Phe-Arg-Trp-Asp]-Pro-Pro-His-Ser-Lys(biscarboxymethyl)-Ser-Ser-Glu-Lys({2-[2-(16-carboxyhexadecanoylamino)ethoxy]ethoxy}acetyl)-NH2] (Ac-KH[dF]RWDPPHS[Lys(CH2CO2H)2]SSEK([AEEA-C17 diacid])-NH2; lactam 1-6) | > 10 | 334 (≈ 813 µg/mL) | 370 (≈ 900 µg/mL) |  | 380 (≈ 924 µg/mL) |  |  | 391 (≈ 951 µg/mL) | 400 (≈ 973 µg/mL) |  |  | 391 (≈ 951 µg/mL) |  |  |  | 350 (≈ 851 µg/mL) |  | 379 (≈ 922 µg/mL) |  | 199 (≈ 484 µg/mL)
